# Literature values in patent US20210023011A1, “METHOD AND SYSTEM FOR PRODUCING HIGH PURITY VANCOMYCIN HYDROCHLORIDE” (ZHEJIANG MEDICINE CO., LTD, priority 2013, published 2021).
# Structures can show the parent of a compound that is named as a salt.
# How the values were obtained:
# [1] = lyophilized powder
smiles,measurement,setting,value
"CN[C@H](CC(C)C)C(=O)N[C@H]1C(=O)N[C@@H](CC(N)=O)C(=O)N[C@H]2C(=O)N[C@H]3C(=O)N[C@H](C(=O)N[C@H](C(=O)O)c4cc(O)cc(O)c4-c4cc3ccc4O)[C@H](O)c3ccc(c(Cl)c3)Oc3cc2cc(c3O[C@@H]2O[C@H](CO)[C@@H](O)[C@H](O)[C@H]2O[C@H]2C[C@](C)(N)[C@H](O)[C@H](C)O2)Oc2ccc(cc2Cl)[C@H]1O [vancomycin hydrochloride, Vancomycin hydrochloride]",solubility in alcohol,[1],slightly soluble
same,solubility in water,[1],freely soluble
same,decrease of chromatographic purity,lyophilization at low temperature,≥ 0.5%
same,decrease of purity level of the solution,vacuum drying at 40° C. within 8 hours,more than 1.0%
